Tests used:
Adenosine receptor A3 = molecular target: T1, Adenosine receptor A3 (Homo sapiens, UniProt P0DMS8)
T1 sequence (P0DMS8 whole entry): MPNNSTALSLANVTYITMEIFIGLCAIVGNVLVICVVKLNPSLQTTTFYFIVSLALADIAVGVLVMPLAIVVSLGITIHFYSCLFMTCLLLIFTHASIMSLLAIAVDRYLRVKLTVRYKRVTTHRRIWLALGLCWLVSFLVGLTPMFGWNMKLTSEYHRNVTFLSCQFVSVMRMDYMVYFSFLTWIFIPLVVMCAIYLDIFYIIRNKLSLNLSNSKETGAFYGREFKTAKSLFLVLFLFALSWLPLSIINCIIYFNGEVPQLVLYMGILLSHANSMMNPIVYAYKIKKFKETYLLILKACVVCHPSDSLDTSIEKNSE

[1] = molecular target: T2, Alpha-1A adrenergic receptor (Homo sapiens, UniProt P35348); type: functional, cell-based
T2 sequence (P35348 whole entry): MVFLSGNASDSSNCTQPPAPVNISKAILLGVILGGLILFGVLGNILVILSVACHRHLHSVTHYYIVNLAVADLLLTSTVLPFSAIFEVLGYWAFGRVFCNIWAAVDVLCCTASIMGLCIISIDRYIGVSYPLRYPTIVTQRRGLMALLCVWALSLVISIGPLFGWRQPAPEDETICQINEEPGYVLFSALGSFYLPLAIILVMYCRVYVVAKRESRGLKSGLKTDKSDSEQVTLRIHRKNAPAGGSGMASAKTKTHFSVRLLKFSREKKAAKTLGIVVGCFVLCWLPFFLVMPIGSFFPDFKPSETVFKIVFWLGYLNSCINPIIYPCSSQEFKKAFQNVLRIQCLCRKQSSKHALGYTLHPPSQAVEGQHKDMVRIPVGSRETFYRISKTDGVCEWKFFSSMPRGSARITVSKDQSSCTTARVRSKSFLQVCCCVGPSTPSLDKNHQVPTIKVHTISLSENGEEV

[2] = molecular target: Vascular endothelial growth factor receptor 2 (Homo sapiens, UniProt P35968); type: functional
Sequence of Vascular endothelial growth factor receptor 2 (P35968 whole entry): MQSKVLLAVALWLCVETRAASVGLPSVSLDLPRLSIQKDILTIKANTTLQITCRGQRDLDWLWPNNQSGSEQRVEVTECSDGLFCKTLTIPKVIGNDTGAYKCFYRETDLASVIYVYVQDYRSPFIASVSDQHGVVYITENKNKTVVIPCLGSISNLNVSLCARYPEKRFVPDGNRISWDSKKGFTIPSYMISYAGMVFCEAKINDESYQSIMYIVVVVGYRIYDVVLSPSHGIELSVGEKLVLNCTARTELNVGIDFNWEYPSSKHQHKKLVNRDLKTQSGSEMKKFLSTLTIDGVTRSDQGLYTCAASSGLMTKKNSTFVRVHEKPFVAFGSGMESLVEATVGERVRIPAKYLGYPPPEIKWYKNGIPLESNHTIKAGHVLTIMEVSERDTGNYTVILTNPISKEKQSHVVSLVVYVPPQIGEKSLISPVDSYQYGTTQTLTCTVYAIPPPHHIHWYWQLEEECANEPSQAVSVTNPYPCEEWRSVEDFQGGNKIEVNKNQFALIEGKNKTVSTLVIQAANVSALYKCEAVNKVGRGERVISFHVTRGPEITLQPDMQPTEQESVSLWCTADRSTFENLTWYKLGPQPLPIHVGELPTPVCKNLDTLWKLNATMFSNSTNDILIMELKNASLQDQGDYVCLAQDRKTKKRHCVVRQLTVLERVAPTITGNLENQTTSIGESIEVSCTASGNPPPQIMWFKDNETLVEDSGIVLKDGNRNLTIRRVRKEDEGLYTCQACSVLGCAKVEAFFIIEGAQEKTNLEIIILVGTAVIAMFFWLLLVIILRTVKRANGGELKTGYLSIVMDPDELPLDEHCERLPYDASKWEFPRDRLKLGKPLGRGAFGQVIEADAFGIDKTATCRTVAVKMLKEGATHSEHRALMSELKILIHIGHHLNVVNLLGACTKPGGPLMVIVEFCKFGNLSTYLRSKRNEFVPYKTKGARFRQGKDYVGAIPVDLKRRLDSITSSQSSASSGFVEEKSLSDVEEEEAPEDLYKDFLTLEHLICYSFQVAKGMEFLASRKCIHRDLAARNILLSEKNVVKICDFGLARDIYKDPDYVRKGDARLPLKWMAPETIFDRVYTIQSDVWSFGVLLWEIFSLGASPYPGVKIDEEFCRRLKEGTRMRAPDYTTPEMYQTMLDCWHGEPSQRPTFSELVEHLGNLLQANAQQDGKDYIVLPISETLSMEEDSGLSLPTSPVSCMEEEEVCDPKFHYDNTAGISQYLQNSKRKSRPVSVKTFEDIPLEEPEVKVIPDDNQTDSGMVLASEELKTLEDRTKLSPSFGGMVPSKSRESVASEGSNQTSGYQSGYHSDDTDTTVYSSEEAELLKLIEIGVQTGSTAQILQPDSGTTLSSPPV

Estrogen receptor = molecular target: T3, Estrogen receptor (Homo sapiens, UniProt P03372)
T3 sequence (P03372 whole entry): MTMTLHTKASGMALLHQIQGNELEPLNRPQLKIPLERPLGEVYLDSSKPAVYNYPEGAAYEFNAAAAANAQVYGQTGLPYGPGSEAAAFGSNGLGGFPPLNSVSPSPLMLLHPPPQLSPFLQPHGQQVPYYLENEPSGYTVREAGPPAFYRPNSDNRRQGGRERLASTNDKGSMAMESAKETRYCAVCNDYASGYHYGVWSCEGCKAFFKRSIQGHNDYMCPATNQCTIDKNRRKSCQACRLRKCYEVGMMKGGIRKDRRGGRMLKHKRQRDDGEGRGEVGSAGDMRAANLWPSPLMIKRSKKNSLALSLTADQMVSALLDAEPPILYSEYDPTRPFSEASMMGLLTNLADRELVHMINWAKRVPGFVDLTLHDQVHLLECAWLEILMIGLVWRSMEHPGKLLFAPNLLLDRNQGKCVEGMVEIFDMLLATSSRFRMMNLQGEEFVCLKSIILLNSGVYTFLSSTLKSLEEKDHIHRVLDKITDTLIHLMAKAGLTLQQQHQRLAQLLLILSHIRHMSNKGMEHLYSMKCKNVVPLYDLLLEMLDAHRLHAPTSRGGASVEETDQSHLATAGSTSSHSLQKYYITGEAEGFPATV

[3] = molecular target: 3',5'-cyclic-AMP phosphodiesterase 4D (Homo sapiens, UniProt Q08499); type: functional
Sequence of 3',5'-cyclic-AMP phosphodiesterase 4D (Q08499 whole entry): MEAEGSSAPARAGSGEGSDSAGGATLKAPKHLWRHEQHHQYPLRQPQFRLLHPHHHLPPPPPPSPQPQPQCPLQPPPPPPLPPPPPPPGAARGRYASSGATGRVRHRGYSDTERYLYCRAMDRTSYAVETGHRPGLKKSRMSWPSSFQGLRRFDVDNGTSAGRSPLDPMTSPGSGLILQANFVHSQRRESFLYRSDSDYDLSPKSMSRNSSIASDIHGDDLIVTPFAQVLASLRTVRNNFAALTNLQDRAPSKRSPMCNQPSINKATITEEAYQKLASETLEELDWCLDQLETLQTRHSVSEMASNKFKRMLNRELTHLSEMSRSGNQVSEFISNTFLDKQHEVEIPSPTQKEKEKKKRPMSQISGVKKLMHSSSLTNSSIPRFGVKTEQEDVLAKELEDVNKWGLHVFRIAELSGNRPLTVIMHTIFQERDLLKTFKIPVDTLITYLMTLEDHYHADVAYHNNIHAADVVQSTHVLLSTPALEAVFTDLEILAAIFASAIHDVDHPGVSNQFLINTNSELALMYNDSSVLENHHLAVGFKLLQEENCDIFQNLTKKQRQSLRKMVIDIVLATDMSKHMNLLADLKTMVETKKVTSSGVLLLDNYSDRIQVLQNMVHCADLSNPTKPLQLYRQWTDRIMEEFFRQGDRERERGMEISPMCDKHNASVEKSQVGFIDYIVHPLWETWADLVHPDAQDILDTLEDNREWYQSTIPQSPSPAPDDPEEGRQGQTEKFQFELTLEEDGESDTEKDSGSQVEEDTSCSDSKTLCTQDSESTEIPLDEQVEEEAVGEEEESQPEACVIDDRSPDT

[4] = molecular target: T2, Alpha-1A adrenergic receptor; type: functional, cell-based; remark: listed apart in the source
[5] = molecular target: Growth hormone secretagogue receptor type 1 (Homo sapiens, UniProt Q92847)
Sequence of Growth hormone secretagogue receptor type 1 (Q92847 whole entry): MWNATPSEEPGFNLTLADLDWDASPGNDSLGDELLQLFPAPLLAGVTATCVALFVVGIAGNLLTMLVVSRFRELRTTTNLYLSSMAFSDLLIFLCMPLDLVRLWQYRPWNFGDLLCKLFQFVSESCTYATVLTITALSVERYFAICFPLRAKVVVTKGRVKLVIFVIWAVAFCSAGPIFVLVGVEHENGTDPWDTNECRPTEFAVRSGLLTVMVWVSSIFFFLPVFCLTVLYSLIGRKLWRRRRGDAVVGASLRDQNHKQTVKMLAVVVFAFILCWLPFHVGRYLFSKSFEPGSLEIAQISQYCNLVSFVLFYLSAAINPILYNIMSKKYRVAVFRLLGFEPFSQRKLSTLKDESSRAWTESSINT

[6] = molecular target: Gamma-aminobutyric acid receptor subunit alpha-1 (Rattus norvegicus, UniProt P62813); type: functional
Sequence of Gamma-aminobutyric acid receptor subunit alpha-1 (P62813 whole entry): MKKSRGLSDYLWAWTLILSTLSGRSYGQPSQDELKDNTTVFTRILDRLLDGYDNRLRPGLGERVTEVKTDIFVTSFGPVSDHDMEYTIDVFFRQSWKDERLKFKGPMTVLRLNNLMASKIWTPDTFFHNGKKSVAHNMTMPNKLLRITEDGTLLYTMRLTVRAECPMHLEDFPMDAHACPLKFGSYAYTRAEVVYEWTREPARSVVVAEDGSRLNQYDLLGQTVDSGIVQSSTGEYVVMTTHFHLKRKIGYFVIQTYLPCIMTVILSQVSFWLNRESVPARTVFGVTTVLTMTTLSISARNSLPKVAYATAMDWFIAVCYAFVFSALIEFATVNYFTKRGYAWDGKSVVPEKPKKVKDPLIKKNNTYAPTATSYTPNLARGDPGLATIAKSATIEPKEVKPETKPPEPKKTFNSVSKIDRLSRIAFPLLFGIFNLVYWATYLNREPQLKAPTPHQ

Adenosine receptor A2a = Adenosine receptor A2a (Homo sapiens, UniProt P29274)
Sequence of Adenosine receptor A2a (P29274 whole entry): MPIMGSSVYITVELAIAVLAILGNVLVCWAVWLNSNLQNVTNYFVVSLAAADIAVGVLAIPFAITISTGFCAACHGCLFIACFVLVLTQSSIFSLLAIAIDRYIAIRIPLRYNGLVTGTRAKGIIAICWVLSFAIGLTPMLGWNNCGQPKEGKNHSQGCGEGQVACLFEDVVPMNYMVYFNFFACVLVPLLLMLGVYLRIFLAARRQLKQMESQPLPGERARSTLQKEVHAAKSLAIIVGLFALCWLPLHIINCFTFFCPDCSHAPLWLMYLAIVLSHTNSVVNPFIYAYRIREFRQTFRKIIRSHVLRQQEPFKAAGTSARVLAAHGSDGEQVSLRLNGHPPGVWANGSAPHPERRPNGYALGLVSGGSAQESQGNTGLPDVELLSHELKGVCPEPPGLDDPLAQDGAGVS

[7] = molecular target: T4, Gastrin/cholecystokinin type B receptor (Homo sapiens, UniProt P32239)
T4 sequence (P32239 whole entry): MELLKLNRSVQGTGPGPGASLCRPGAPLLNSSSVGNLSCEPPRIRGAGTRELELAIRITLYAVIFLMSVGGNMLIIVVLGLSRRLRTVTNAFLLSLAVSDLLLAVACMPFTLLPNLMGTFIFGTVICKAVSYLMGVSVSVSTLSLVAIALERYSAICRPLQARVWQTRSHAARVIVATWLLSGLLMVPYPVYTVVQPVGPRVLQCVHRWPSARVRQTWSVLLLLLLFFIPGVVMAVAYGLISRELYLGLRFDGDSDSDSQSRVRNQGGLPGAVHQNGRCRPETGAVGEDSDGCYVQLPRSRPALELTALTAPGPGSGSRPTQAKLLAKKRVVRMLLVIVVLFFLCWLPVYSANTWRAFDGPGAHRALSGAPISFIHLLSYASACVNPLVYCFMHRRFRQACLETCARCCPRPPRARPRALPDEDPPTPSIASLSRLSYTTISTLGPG

[8] = molecular target: Glutamate receptor ionotropic, NMDA 1 (Rattus norvegicus, UniProt P35439)
[9] = molecular target: Beta-1 adrenergic receptor (Homo sapiens, UniProt P08588); type: functional
Sequence of Beta-1 adrenergic receptor (P08588 whole entry): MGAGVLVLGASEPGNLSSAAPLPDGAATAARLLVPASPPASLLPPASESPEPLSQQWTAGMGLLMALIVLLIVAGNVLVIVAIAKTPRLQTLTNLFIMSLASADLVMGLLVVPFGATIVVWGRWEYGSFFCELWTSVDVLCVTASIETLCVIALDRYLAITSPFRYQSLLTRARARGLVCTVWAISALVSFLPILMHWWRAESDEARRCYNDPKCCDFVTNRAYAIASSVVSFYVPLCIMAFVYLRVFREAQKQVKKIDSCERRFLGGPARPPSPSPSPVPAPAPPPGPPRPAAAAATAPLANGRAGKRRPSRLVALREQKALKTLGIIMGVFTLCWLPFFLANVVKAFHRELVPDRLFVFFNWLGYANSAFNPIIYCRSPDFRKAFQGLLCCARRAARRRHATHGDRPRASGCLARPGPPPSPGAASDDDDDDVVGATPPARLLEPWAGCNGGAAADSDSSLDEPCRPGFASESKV

Mu-type opioid receptor = Mu-type opioid receptor (Homo sapiens, UniProt P35372)
Sequence of Mu-type opioid receptor (P35372 whole entry): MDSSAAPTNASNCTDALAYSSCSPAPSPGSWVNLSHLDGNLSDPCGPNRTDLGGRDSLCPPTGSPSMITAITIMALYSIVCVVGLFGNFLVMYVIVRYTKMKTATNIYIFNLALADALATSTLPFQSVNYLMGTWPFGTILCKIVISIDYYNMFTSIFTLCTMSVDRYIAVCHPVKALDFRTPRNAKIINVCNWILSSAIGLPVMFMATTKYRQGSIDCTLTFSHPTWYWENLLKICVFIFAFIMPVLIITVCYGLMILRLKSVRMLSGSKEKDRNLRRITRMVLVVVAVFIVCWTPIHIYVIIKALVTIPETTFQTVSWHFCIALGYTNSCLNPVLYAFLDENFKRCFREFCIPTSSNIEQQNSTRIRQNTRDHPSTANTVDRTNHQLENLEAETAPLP
Also: assay procedure not described here.

C[N+](C)(C)C[C@H](O)CC(=O)[O-] [LEVOCARNITINE]
AC50 (Adenosine receptor A3): > 30 µM
AC50 [1]: > 30 µM
AC50 [2]: > 30 µM

C[C@]1(Cn2ccnn2)[C@H](C(=O)O)N2C(=O)C[C@H]2S1(=O)=O [TAZOBACTAM]
AC50 (Estrogen receptor): > 30 µM
AC50 (Adenosine receptor A3): > 30 µM
AC50 [1]: > 30 µM
AC50 [2]: > 30 µM

OC[C@H]1O[C@@](CO)(O[C@H]2O[C@H](CO)[C@@H](O)[C@H](O)[C@H]2O)[C@@H](O)[C@@H]1O [SUCROSE]
AC50 (Estrogen receptor): > 30 µM
AC50 [3]: > 30 µM
AC50 [4]: > 30 µM
AC50 [5]: > 30 µM
AC50 [6]: > 30 µM
AC50 (Adenosine receptor A2a): > 30 µM
AC50 [7]: > 30 µM
AC50 [8]: > 30 µM

Cc1onc(-c2ccccc2)c1-c1ccc(S(N)(=O)=O)cc1 [VALDECOXIB]
AC50 [3]: > 10 µM
AC50 [9]: 8.32 µM
AC50 [4]: > 30 µM
AC50 [5]: > 30 µM
AC50 (Adenosine receptor A3): 23.8 µM
AC50 [6]: > 10 µM
AC50 (Adenosine receptor A2a): > 30 µM
AC50 [7]: > 30 µM
AC50 [1]: > 30 µM
AC50 [2]: > 30 µM
AC50 (Mu-type opioid receptor): > 30 µM
AC50 [8]: > 10 µM

C#C[C@]1(O)CC[C@H]2[C@@H]3CCC4=CC(=O)CC[C@@H]4[C@H]3C(=C)C[C@@]21CC [ETONOGESTREL]
AC50 (Estrogen receptor): 5.62 µM
AC50 [3]: > 30 µM
AC50 [4]: > 30 µM
AC50 [6]: 27 µM
AC50 [8]: > 30 µM

CN1C(C(=O)Nc2ccccn2)=C(O)c2ccccc2S1(=O)=O [PIROXICAM]
AC50 (Estrogen receptor): > 30 µM
AC50 [3]: > 30 µM
AC50 [9]: > 10 µM
AC50 [5]: > 10 µM
AC50 [6]: > 10 µM
AC50 (Adenosine receptor A2a): > 10 µM
AC50 (Mu-type opioid receptor): > 30 µM
AC50 [8]: > 10 µM

C[C@H]1O[C@@H](n2cc(F)c(=O)[nH]c2=O)[C@H](O)[C@@H]1O [DOXIFLURIDINE]
AC50 (Adenosine receptor A3): > 30 µM
AC50 [1]: > 30 µM
AC50 [2]: > 30 µM

O=C(O)COc1ccc(C(=O)c2cccs2)c(Cl)c1Cl
AC50 (Estrogen receptor): > 30 µM
AC50 (Adenosine receptor A3): > 30 µM
AC50 [1]: > 30 µM
AC50 [2]: > 30 µM

CCCC(CCC)C(=O)O [VALPROIC ACID]
AC50 (Estrogen receptor): > 30 µM
AC50 [3]: > 30 µM
AC50 [9]: > 10 µM
AC50 [5]: > 30 µM
AC50 [6]: > 10 µM
AC50 (Adenosine receptor A2a): > 30 µM
AC50 [7]: > 30 µM
AC50 (Mu-type opioid receptor): > 30 µM
AC50 [8]: > 10 µM

CC[C@@]1(O)C(=O)OCc2c1cc1n(c2=O)Cc2cc3c([N+](=O)[O-])cccc3nc2-1 [RUBITECAN]
AC50 (Estrogen receptor): > 30 µM

CN(C)CCc1c[nH]c2ccc(Cn3cncn3)cc12 [RIZATRIPTAN]
AC50 [3]: > 30 µM
AC50 [9]: > 10 µM
AC50 [4]: > 30 µM
AC50 [5]: > 30 µM
AC50 [6]: > 30 µM
AC50 (Adenosine receptor A2a): > 30 µM
AC50 [7]: > 30 µM
AC50 (Mu-type opioid receptor): > 10 µM
AC50 [8]: > 30 µM

OC[C@@H](O)[C@@H](O)[C@H](O)[C@@H](O)CO [SORBITOL]
AC50 (Estrogen receptor): > 30 µM

CN(C)[C@@H]1C(O)=C(C(N)=O)C(=O)[C@@]2(O)C(O)=C3C(=O)c4c(O)ccc(Cl)c4[C@@](C)(O)[C@H]3C[C@@H]12 [CHLORTETRACYCLINE]
AC50 (Adenosine receptor A3): > 30 µM
AC50 [1]: > 30 µM
AC50 [2]: > 30 µM

CCOC(=O)c1c(C)cc2c(CO)n[nH]c(=O)c2c1C [OXAGRELATE]
AC50 (Estrogen receptor): > 30 µM

CC(CCc1ccccc1)NCC(O)c1ccc(O)c(C(N)=O)c1 (stereo unspecified) [LABETALOL]
AC50 (Estrogen receptor): > 30 µM
AC50 (Adenosine receptor A3): > 30 µM
AC50 [2]: > 30 µM

COc1ccccc1Oc1c(NS(=O)(=O)c2ccc(C(C)(C)C)cc2)nc(-c2ncccn2)nc1OCCO [BOSENTAN]
AC50 [3]: > 30 µM
AC50 [9]: > 30 µM
AC50 [4]: > 30 µM
AC50 [5]: > 30 µM
AC50 [6]: > 10 µM
AC50 (Adenosine receptor A2a): > 30 µM
AC50 [7]: > 30 µM
AC50 (Mu-type opioid receptor): > 30 µM
AC50 [8]: > 10 µM

CC1=C(/C=C/C(C)=C/C=C/C(C)=C/C(=O)O)C(C)(C)CCC1 [TRETINOIN]
AC50 (Adenosine receptor A3): 8.21 µM
AC50 [1]: > 30 µM
AC50 [2]: > 30 µM

O=C(O)CO [GLYCOLIC ACID]
AC50 (Estrogen receptor): > 30 µM

COc1cc2nc(N3CCN(C(=O)C4CCCO4)CC3)nc(N)c2cc1OC (stereo unspecified) [TERAZOSIN]
AC50 (Estrogen receptor): > 30 µM
AC50 [3]: > 30 µM
AC50 [9]: > 10 µM
AC50 [5]: > 30 µM
AC50 [6]: > 10 µM
AC50 (Adenosine receptor A2a): > 30 µM
AC50 [7]: > 30 µM
AC50 (Mu-type opioid receptor): 3 µM
AC50 [8]: > 10 µM

Source: ChEMBL document CHEMBL5291721, “A preclinical secondary pharmacology resource illuminates target-adverse drug reaction associations of marketed drugs” (Nat Commun, 2023)
